According to patent US20240299349A1, “TREATMENT OR PREVENTION OF LEUKAEMIA” (VESTLANDETS INNOVASJONSSELSKAP AS, priority 2019, published 2024):

Tests used:
MOLM-13 cell line = assay: WST-1 cell viability assay, 24 hours treatment, MOLM-13; type: cell-based, human; conditions: MOLM-13, 24 hours; for cytotoxicity / %-viability: 0.001-100 μM, WST-1; for cell survival dose/response curve in the mitochondria metabolism assay (WST-1): FIG. 1
Protocol: (§1) The cell lines HL60 and MOLM-13 were treated with the various compounds for 24 hours. The cell viability assay WST-1 was used to determine the cytotoxic effect and to generate the dose-response curves and IC50 values.
(§2) The two human cell lines HL60 and MOLM-13 reflect the aggressive blood cancer acute myeloid leukaemia (AML). These cell lines (obtained from the American Type Culture Collection, ATCC) were cultured in RPMI 1640, 2 mM L-Glutamine, 50 UmL^−1 penicillin/streptomycin (Sigma Aldrich) and 10% fetal bovine serum (Biowest) and incubated in humidified atmosphere at a temperature of 37° C. under 5% CO2. The cells (2×10^5 cells×mL^−1) were treated with various concentrations (0.001 μM→100 μM) of the compounds for a period of 24 hours. Metabolic cell activity (i.e. cell viability) was measured using the WST-1 cell proliferation agent (Roche) and read on a […] plate reader (Infinite 200 Pro, Tecan). Selected cell samples were analysed after nuclear staining with Hoechst to determine apoptotic nuclear fragmentation.

HL60 cell line = assay: WST-1 cell viability assay, 24 hours treatment, HL60; type: cell-based, human; conditions: HL60, 24 hours; for cytotoxicity / %-viability: 0.001-100 μM, WST-1; for cell survival dose/response curve in the mitochondria metabolism assay (WST-1): FIG. 1
Protocol: as §1, §2

Row | melting point | Structure (SMILES) | cytotoxicity / %-viability (MOLM-13 cell line) | cell survival dose/response curve in the mitochondria metabolism assay (WST-1) (MOLM-13 cell line) | cytotoxicity / %-viability (HL60 cell line) | cell survival dose/response curve in the mitochondria metabolism assay (WST-1) (HL60 cell line)
1 | 102.7 °C | COc1c(C)c(OC)c([N+](=O)[O-])c(-c2ccccc2)c1O [Compound 7, 3,5-dimethoxy-4-methyl-6-nitrobiphenyl-2-ol] | minor decrease in %-viability | more limited dose/response curves | minor decrease in %-viability | more limited dose/response curves
2 |  | COc1cccc(-c2c(O)c(OC)c(C)c(OC)c2[N+](=O)[O-])c1 [Compound 7a, 3,3′,5-trimethoxy-4-methyl-6-nitro-[1,1′-biphenyl]-2-ol] |  | rapid decrease in cell survival |  | rapid decrease in cell survival
3 |  | COc1c(C)c(OC)c(O)c(-c2ccccc2)c1N [Compound 8, 6-amino-3,5-dimethoxy-4-methyl-[1,1′-biphenyl]-2-ol] | substantial drop in %-viability | rapid decrease in cell survival | substantial drop in %-viability | rapid decrease in cell survival
4 |  | COc1cccc(-c2c(N)c(OC)c(C)c(OC)c2O)c1 [Compound 8a, 6-amino-3,3′,5-trimethoxy-4-methyl-[1,1′-biphenyl]-2-ol] |  | rapid decrease in cell survival |  | rapid decrease in cell survival
5 |  | COc1c(C)c(OC)c(OC(C)=O)c(-c2ccccc2)c1NC(C)=O [Compound 9, 6-acetamido-3,5-dimethoxy-4-methyl-(1,1′-biphenyl)-2-yl acetate] | weaker cytotoxicity | more limited dose/response curves | weaker cytotoxicity | more limited dose/response curves
6 |  | COc1cccc(-c2c(NC(C)=O)c(OC)c(C)c(OC)c2OC(C)=O)c1 [Compound 9a, 6-acetamido-3,3′,5-trimethoxy-4-methyl-(1,1′-biphenyl)-2-yl acetate] |  | more limited dose/response curves |  | more limited dose/response curves
7 |  | COc1c(C)c(OC)c2c(c1OC(C)=O)c1ccccc1n2C(C)=O [Compound 10, 9-acetyl-1,3-dimethoxy-2-methyl-9H-carbazol-4-yl acetate] | did not show any influence on the cytotoxicity | rapid decrease in cell survival | did not show any influence on the cytotoxicity | rapid decrease in cell survival
8 |  | COc1c(C)c(OC)c2[nH]c3ccccc3c2c1O [Compound 11, 1,3-dimethoxy-2-methyl-9H-carbazol-4-ol] | major cytotoxicity | rapid decrease in cell survival | major cytotoxicity | rapid decrease in cell survival
9 |  | COC1=C(C)C(=O)c2[nH]c3ccccc3c2C1=O [Compound 12, 3-methoxy-2-methyl-1-carbazole-1,4 (9H)-dione] |  | more limited dose/response curves |  | more limited dose/response curves
10 |  | COC1=C(C)C(C)(O)c2[nH]c3ccccc3c2C1=O (stereo not drawn) [Compound 13, 1-hydroxy-3-methoxy-1,2-dimethyl-1,9-dihydro-4H-carbazol-4-one, reference compound] | not to exhibit cytotoxicity | more limited dose/response curves | not to exhibit cytotoxicity | more limited dose/response curves
